Test results published in paper PMC2650251 (Organic letters, 2008).

Tested on: not given
Experiment: not given
Details: cited from earlier work
In the case of N[C@@H](Cc1cc(F)c(O)c(F)c1)C(=O)O [Compound 1, 3,5-difluorotyrosine], the “side chain pKa” value is given as 7.2.

Molecular target: T1, PTP1B (Homo sapiens, UniProt P18031)
T1 sequence (P18031 1-435): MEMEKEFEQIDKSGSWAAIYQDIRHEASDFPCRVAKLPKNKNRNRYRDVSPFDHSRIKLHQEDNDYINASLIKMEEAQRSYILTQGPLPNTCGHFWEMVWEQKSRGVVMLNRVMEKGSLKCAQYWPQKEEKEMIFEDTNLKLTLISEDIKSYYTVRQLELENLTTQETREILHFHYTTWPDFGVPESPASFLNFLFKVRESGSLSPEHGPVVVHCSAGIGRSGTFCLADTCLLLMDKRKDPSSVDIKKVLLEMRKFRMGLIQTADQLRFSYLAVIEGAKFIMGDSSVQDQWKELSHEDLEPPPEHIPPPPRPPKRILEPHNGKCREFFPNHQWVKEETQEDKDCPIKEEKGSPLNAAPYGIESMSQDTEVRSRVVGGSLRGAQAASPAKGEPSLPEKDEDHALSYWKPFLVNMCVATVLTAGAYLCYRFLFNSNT
Experiment: Kinetic constants of pY peptides against PTP1B
Assay type: biochemical
Details: pH 7.4, peptide as substrate
Work on DNLF2YpYWD-NH2 [Peptide 4] yielded a Km of 3.6 ± 0.4 µM, a kcat of 36 ± 1 s⁻¹ and a kcat/KM of 1e+07 M⁻¹ s⁻¹. DDTF2YDpYAA-NH2 [Peptide 6] showed a Km of 13 ± 3 µM, a kcat of 36 ± 2 s⁻¹ and a kcat/KM of 2.7e+06 M⁻¹ s⁻¹. Work on DDTYDpYAA-NH2 [Peptide 7] yielded a Km of 14 ± 2 µM, a kcat of 33 ± 1 s⁻¹ and a kcat/KM of 2.3e+06 M⁻¹ s⁻¹. REYEFpYAA-NH2 [Peptide 9] showed a Km of 6 ± 0.7 µM, a kcat of 33 ± 1 s⁻¹ and a kcat/KM of 5.4e+06 M⁻¹ s⁻¹.
